Assay results published in patent US20260284127A1, “COMPOSITIONS OF […] CORDYCEPS AND METHODS OF DELIVERY FOR THE TREATMENT OF ACUTE AND LONG COVID” (priority 2023, published 2026).

Columns and labels:
CaCo2 = conditions: human, Caco-2; cited from earlier work
[1] = cordycepin after one oral dose of HAD-B1 formula; cited from earlier work
CaCo2 cells = assay type: in vitro ADME; conditions: 200 μg/ml cordycepin apical, pure solution
Description: Methods: Transepithelial wells with a 1 μm pore size and 0.3 cm^2 surface area were preincubated with DMEM-F12 media with 10% FBS and 10 μg/ml penicillin/streptomycin at 37° C. in 5% CO2 for one hour. CaCo2 cells in the same media were seeded at a density of 50,000 cells. The cells were maintained under these conditions throughout the experiment. Media was changed every 2 to 3 days, and TEER values were monitored from day 10 onward. At day 18, cells with TEER values exceeding 200 ohm/cm^2 were incubated in PAB buffer for 20 minutes: 1 ml in basolateral and 0.5 ml in apical side. Samples of 200 μg/ml cordycepin, and 200 μg/ml cordycepin in a standardized cordyceps extract were prepared in PAB buffer, which was exchanged for the apical buffer. Fifty microlitre samples of both apical and basolateral compartments were acquired initially and at 1 hour intervals. The samples were immediately added to 450 μl of methanol and quantified on an Agilent 4910 LC-mass spectrometer. Cordycepin was measured by direct injection in SMS mode and integrated values were compared against standard curves prepared in the same manner as test samples.

[2] = cited from earlier work
[3] = given as a pure compound; cited from earlier work

For `Nc1ncnc2c1ncn2[C@@H]1O[C@H](CO)C[C@H]1O` [cordycepin, 3′-deoxyadenosine], the CaCo2 permeability (CaCo2) is given as 1.1*10^−7 cm/s, the half-life [1] is given as 8.62 h and the “time to maximal concentration” value [1] is given as 1.5 h. For the same compound, the “cordycepin measured on the basal side” value (CaCo2 cells) was “no detectable”, the “experimental solubility in water” value [2] was 1000 µg/mL and the oral bioavailability [3] was “extremely low”.
